{"source": "patent US20240165112A1", "about": "“THERAPY FOR THE TREATMENT OF CANCER” (Bristol-Myers Squibb Company, priority 2022, published 2024)", "key": {"[1]": {"system": "COL1A1, PAI-1, TNC, LRRC15 transcripts in A549 lung cancer cells", "experiment": "TGF-β-induced transcripts in A549 tumor cells (RT-PCR)", "assay_type": "cell-based, human", "method": "Indicated gene transcripts were assessed by RT-PCR relative to GAPDH. Data were normalized to expression after TGF-β-treatment in the presence of only DMSO. Data are presented as mean of 3 biological replicates, and error bars indicate standard deviation. The graphs are representative of at least 2 independent experiments. *P<0.05; ** P<0.01, ***P<0.001; ****P<0.0001 by student's t-test.\nCells were directly lysed in Qiagen™ Buffer RLT Plus with 1% 2-Mercaptoethanol added. Total RNA from tumor samples and cell lines was isolated using Qiagen™ AllPrep® DNA/RNA 96 Kit according to manufacturer's protocol. Isolated RNA was analyzed with NanoDrop™ ONE Spectrophotometer for concentration. The RNA integrity was also analyzed on Agilent TapeStation 4200.\nComplimentary deoxyribonucleic acid (cDNA) was prepared by using Invitrogen™ SuperScript™ III First-Strand Synthesis SuperMix for qRT-PCR. Up to 1 μg of RNA was prepared according to manufacturer's protocol, using Applied Biosystems™ Veriti™ 96-well thermal cycler. The reverse transcription (RT) program used for cDNA synthesis: • 1. 25° C., 10 minutes • 2. 50° C., 30 minutes • 3. 85° C., 5 minutes • 4. Add E. Coli RNase H, 37° C., 20 minutes • 5. Hold at 4° C. Quantitative Reverse Transcription Polymerase Chain Reaction (qRT-PCR).\nThe cDNA was diluted 1:3 fold in nuclease-free water for quantitative polymerase chain reaction (qPCR) setup. Human and mouse TaqMan™ assays for targeted genes were ordered through Applied Biosystems™. TaqMan™ assay selection was based on manufacturer's recommendation. The qRT-PCR was set up using Applied Biosystems™ TaqMan™ Fast Advanced Master Mix according to manufacturer's protocol. The qRT-PCR was run on QuantStudio™ 12 Flex with fast run mode: • 1. 95° C., 20 seconds • 2. 95° C., 1 second • 3. 60° C., 20 seconds • 4. Repeat steps 2-3, 39 times\nThe qPCR data was analyzed, and all cycle threshold (Ct) values were normalized to glyceraldehyde-3-phosphate dehydrogenase (GAPDH) (ΔCt). Analysis was plotted and presented using GraphPad Prism (GraphPad, Version 8.4.1, San Diego, CA).\nThe RNA expression was assessed 24 hours after TGF-β treatment."}, "[2]": {"system": "Eleven patient-derived tumor organoids", "experiment": "3D clonogenic assay, summary over the organoid panel", "assay_type": "cell-based, human", "settings": "for median percent colony reduction relative to DMSO: 11 organoid cultures", "method": "Five tumor cell lines (4T1.2, A549, EMT6, NCI-H460, and HT29) were treated with a range of paclitaxel or 5-FU concentrations in the presence of dimethlylsulfoxide (DMSO), 5 μM Compound 1, or 20 μM Compound 1. Cells were imaged 4 days after treatment and percent confluence was assessed by image quantification. EC50 values for cell confluence were used to assess chemotherapy potency. Eleven patient-derived tumor organoids (MAXFTN449, MAXFTN2990, PAXF1657, PAXF2131, CXF1256, CXF2129, CXF2061, LXFE2478, LXFE690, LXFA677, LXFA644) were seeded in a 3D matrix and treated with a range of paclitaxel, 5-FU, SN38, Gemcitabine, oxaliplatin, and carboplatin concentrations in the presence of DMSO, 5 μM Compound 1, or 20 μM Compound 1. After 8 to 13 days in culture, colonies were stained, imaged, and counted. A dose response curve was generated for chemotherapy alone or chemotherapy in combination with 5 or 20 μM Compound 1. Combination activity was defined as a percentage of the area under the chemotherapy dose response curve (cAUC) for Compound 1 combination groups compared to the cAUC of chemotherapy alone.\nThe clonogenic assay was carried out in a 96 well plate format using ultra low attachment plates. For each test, plates were prepared as follows: each test well contained a layer of semi-solid medium with tumor cells (50 μL), and a second layer of medium supernatant with or without test compound (100 μL). The cell layer consisted of […] to 12.5×10^3 tumor cells per well, which were seeded in 50 μL/well cell culture medium (IMDM, supplemented with 20% (v/v) fetal bovine serum, 50 μg/mL gentamicin, and 0.4% (w/v) agar). After 24 hours, the soft-agar layer was covered with 90 μL of the same culture medium without agar, and 10 μL of control medium or test compound after serial dilution in DMSO for the duration of the experiment (continuous exposure, 100 μL drug overlay).\nAfter 8 to 13 days in culture, colonies were stained, imaged, and counted."}, "[3]": {"system": "primary human macrophages", "experiment": "Primary macrophage viability (Cell Titer Glo)", "assay_type": "cell-based", "settings": "Cell Titer Glo at the end of the experiment; any of the doses tested", "method": "FIG. 12 illustrates the effect of Compound 1 on Primary Macrophage Viability. Primary human monocytes were differentiated into macrophages and treated with varying doses of DMSO or Compound 1. Cell viability was assessed by Cell Titer Glo 24 hours after drug treatment. Viability in drug treatment groups was normalized to the equivalent DMSO concentration. Data are plotted as the mean and standard deviation of 3 donors and representative of 2 independent experiments. Abbreviations: DMSO, dimethyl sulfoxide.\nPeripheral blood mononuclear cells (PBMCs) were isolated from human blood using aseptic conditions. CD14+ monocytes were enriched from PBMC using Miltenyi Biotech kit (using CD14 microbeads). Fresh CD14+ monocytes were differentiated to macrophages using complete RPMI1640 medium with M-CSF recombinant human protein at the final concentration of 50 ng/mL. At Day 3-4, media containing M-CSF was added on monocytes/macrophages and incubated for 6-7 days in 5% CO2 incubator at 37° C. 10 mL 10 mM EDTA or Detachin was added to the culture dish containing macrophages, and let sit for 20-30 minutes, or until cells dissociate from the dish at room temperature. Macrophages were collected and washed in a 50 mL conical tube and centrifuged at 300-400×g for 4-5 minutes at room temperature. […]"}, "[4]": {"settings": "30 μM Compound 1, 10 ng/mL TGF-β, 24 hours"}}}
{"smiles": "C[C@@H]1CC[C@@H](Nc2nc(NC(C)(C)C)ncc2C(N)=O)C[C@H]1O", "note": "[Compound 1, 2-(tert-butylamino)-4-((1R,3R,4R)-3-hydroxy-4-methylcyclohexylamino)-pyrimidine-5-carboxamide]", "values": [{"measurement": "COL1A1 reduced relative to TGF-β stimulation in the presence of DMSO alone", "setting": "[1]; [4]", "result": 56, "unit": "%"}, {"measurement": "PAI-1 reduced relative to TGF-β stimulation in the presence of DMSO alone", "setting": "[1]; [4]", "result": 64, "unit": "%"}, {"measurement": "TNC reduced relative to TGF-β stimulation in the presence of DMSO alone", "setting": "[1]; [4]", "result": 90, "unit": "%"}, {"measurement": "Tenascin C upregulation with TGF-β treatment", "setting": "[1]; Compound 1 at 30 μM, 15 μM or 5 μM", "result": "inhibited by all doses of Compound 1 tested"}, {"measurement": "organoid cultures with an average percent colony reduction greater than 20%", "setting": "[2]; 5 μM Compound 1", "result": "8 out of 11"}, {"measurement": "median percent colony reduction relative to DMSO", "setting": "[2]; 5 μM Compound 1", "result": 39, "unit": "%"}, {"measurement": "organoid cultures with an average percent colony reduction greater than 20%", "setting": "[2]; 20 μM Compound 1", "result": "10 out of 11"}, {"measurement": "median percent colony reduction relative to DMSO", "setting": "[2]; 20 μM Compound 1", "result": 34, "unit": "%"}, {"measurement": "Macrophage cell viability relative to DMSO", "setting": "[3]", "result": "No change in cell viability"}]}
